The source of these data is patent US8785457B2 (Cellzome Limited, priority 2009, dated 2014).

Assay [1] relates to S6RP serine-240/244 phosphorylation. The assay can be described thus: In vitro Phospho-S6 cellular assay (pS6RP S240/244) in HEK293T/17 cells. Type of assay: cell-based. The settings on record: Homo sapiens, 2 hours, read-out: pS6 IC50. In outline: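 Compounds were tested at eight concentrations on adhered HEK293T/17 cells for 2 h at 37 °C (2% FCS, 0.1% DMSO), at 80,000 cells/well for pAkt S473 and 40,000 for pS6RP S240/244. Lysates were captured on phospho-specific antibody MSD plates with Sulfo-Tag detection. Values came from nonlinear variable-slope regression.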

In another assay the target is T1, PI3 Kbeta (PI3 Kb) (Homo sapiens, UniProt P42338).
T1 construct: endogenous in cells; host or cells: cell lysate
The assay can be described thus: kinobeads assay, PI3Kbeta. The settings on record: Further Kinobeads Data; read-out: PI3Kb. Format: binding. In short, it runs like this: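 In this bead competition format, compound and immobilized phenylmorpholin-chromen ligand compete for kinases in cell lysate. Eluted captured kinases were measured by multiplexed immunodetection, and IC50 was calculated.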

T1 sequence (P42338 whole entry): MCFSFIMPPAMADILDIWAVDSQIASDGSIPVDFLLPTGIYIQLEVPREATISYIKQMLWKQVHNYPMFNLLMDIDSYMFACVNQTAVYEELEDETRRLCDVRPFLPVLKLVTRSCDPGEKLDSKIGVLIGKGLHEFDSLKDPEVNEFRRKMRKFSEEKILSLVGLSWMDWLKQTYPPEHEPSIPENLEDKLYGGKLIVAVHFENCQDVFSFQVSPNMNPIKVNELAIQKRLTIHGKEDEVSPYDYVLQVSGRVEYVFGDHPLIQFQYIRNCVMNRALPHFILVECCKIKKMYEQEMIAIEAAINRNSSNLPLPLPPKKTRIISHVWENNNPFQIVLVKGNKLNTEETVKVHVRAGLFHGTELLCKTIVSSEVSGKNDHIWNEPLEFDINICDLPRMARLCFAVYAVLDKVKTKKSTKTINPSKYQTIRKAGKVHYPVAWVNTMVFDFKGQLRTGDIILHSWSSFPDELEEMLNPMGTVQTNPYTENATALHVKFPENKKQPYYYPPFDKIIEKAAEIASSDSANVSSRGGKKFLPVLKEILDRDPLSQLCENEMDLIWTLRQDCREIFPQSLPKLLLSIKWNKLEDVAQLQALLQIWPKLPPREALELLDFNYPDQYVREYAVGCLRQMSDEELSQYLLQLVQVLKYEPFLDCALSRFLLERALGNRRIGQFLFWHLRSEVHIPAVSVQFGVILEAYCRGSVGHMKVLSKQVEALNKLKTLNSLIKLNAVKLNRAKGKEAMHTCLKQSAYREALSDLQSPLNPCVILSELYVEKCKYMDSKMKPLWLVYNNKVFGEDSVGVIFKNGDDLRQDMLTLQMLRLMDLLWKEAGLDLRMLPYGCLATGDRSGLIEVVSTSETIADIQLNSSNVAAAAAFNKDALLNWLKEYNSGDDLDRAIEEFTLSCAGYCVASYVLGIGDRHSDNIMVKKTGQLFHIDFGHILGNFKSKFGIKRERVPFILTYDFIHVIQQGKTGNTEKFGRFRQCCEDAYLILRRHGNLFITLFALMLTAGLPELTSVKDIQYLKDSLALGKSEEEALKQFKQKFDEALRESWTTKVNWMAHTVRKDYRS
T1 sequence (P27986 whole entry partner): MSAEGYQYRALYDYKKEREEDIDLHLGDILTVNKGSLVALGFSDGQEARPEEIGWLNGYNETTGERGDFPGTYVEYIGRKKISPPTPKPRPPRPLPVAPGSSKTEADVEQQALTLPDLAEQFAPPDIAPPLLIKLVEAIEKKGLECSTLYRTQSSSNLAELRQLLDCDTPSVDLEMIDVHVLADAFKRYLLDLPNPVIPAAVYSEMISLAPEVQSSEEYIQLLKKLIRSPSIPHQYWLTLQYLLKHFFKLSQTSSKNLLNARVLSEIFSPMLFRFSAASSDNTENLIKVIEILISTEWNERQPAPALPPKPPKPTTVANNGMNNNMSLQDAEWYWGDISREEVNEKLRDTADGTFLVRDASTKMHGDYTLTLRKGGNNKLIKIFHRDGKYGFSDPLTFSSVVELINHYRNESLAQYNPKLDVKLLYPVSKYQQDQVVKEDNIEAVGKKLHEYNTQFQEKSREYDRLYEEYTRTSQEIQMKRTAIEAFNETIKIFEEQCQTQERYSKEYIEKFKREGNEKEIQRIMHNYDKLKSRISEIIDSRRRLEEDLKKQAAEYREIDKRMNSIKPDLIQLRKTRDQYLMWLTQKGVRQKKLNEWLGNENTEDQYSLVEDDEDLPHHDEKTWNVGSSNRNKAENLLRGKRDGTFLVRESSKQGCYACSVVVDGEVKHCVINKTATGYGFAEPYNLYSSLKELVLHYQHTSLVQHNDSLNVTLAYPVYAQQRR

As to `CCOC(=O)N1Cc2nc(-c3ccc(NC(=O)NC4CC4)cc3F)nc(N3CCOCC3)c2C1` [Example 156, Ethyl 2-(4-(3-cyclopropylureido)-2-fluorophenyl)-4-morpholino-5H-pyrrolo[3,4-d]pyrimidine-6(7H)-carboxylate], the IC50 is 135 nM in assay [1] and above 10000 nM at PI3 Kbeta (PI3 Kb).
Regarding `CN1Cc2nc(-c3ccc(NC(=O)NC4CC4)cc3F)nc(N3CCOCC3)c2C1` [Example 159, 1-(Cyclopropyl)-3-(3-fluoro-4-(6-methyl-4-morpholino-6,7-dihydro-5H-pyrrolo[3,4-d]pyrimidin-2-yl)phenyl)urea], the IC50 in assay [1] is 271 nM; at PI3 Kbeta (PI3 Kb) it was above 10000 nM.
The corresponding values for `CCNC(=O)Nc1ccc(-c2nc3c(c(N4CCOC[C@@H]4C)n2)CN(C)C3)c(F)c1` [Example 160, (S)-1-ethyl-3-(3-fluoro-4-(6-methyl-4-(3-methylmorpholino)-6,7-dihydro-5H-pyrrolo[3,4-d]pyrimidin-2-yl)phenyl)urea] are 355 nM and above 10000 nM.
With `CCNC(=O)Nc1ccc(-c2nc3c(c(N4CCOCC4)n2)CN(C(=O)OC)C3)c(F)c1` [Example 162, methyl 2-(4-(3-ethylureido)-2-fluorophenyl)-4-morpholino-5H-pyrrolo[3,4-d]pyrimidine-6(7H)-carboxylate], the IC50 in assay [1] was 114 nM; at PI3 Kbeta (PI3 Kb), 1000 to 10000 nM.
Take `C[C@H]1COCCN1c1nc(-c2ccc(NC(=O)NC3CC3)cc2F)nc2c1CCNC2` [Example 163, (S)-1-cyclopropyl-3-(3-fluoro-4-(4-(3-methylmorpholino)-5,6,7,8-tetrahydropyrido[3,4-d]pyrimidin-2-yl)phenyl)urea]: the figures for the IC50 (in assay [1]; on PI3 Kbeta (PI3 Kb)) were 405 nM and above 10000 nM, respectively.
On to `CCNC(=O)Nc1ccc(-c2nc3c(c(N4CCOC[C@@H]4C)n2)CCNC3)c(F)c1` [Example 164, (S)-1-ethyl-3-(3-fluoro-4-(4-(3-methylmorpholino)-5,6,7,8-tetrahydropyrido[3,4-d]pyrimidin-2-yl)phenyl)urea], for which the results for the IC50 (in assay [1]; at PI3 Kbeta (PI3 Kb)) were 510 nM and above 10000 nM, respectively.
On to `C[C@H]1COCCN1c1nc(-c2ccc(NC(=O)NC3CC3)cc2F)nc2c1CCN(C(=O)N(C)C)C2` [Example 165, (S)-2-(4-(3-cyclopropylureido)-2-fluorophenyl)-N,N-dimethyl-4-(3-methylmorpholino)-5,6-dihydropyrido[3,4-d]pyrimidine-7(8H)-carboxamide], for which the IC50 in assay [1] was 45 nM; at PI3 Kbeta (PI3 Kb), above 10000 nM.
In the case of `CCOC(=O)N1Cc2nc(-c3ccc(NC(=O)NCCO)cc3F)nc(N3CCOC[C@@H]3C)c2C1` [Example 167, (S)-Ethyl 2-(2-fluoro-4-(3-(2-hydroxyethyl)ureido)phenyl)-4-(3-methylmorpholino)-5H-pyrrolo[3,4-d]pyrimidine-6(7H)-carboxylate], the results for the IC50 (in assay [1]; on PI3 Kbeta (PI3 Kb)) were 615 nM and 1000 to 10000 nM, respectively.
With `CCOC(=O)N1Cc2nc(-c3ccc(NC(=O)NCCF)cc3F)nc(N3CCOC[C@@H]3C)c2C1` [Example 168, (S)-ethyl 2-(2-fluoro-4-(3-(2-fluoroethyl)ureido)phenyl)-4-(3-methylmorpholino)-5H-pyrrolo[3,4-d]pyrimidine-6(7H)-carboxylate], the IC50 was 97 nM in assay [1] and above 10000 nM at PI3 Kbeta (PI3 Kb).
With `CCOC(=O)N1Cc2nc(-c3ccc(NC(=O)NCCF)cc3F)nc(N3CCOCC3)c2C1` [Example 170, ethyl 2-(2-fluoro-4-(3-(2-fluoroethyl)ureido)phenyl)-4-morpholino-5H-pyrrolo[3,4-d]pyrimidine-6(7H)-carboxylate], the IC50 is 105 nM in assay [1] and above 10000 nM on PI3 Kbeta (PI3 Kb).
With `CCOC(=O)N1Cc2nc(-c3ccc(NC(=O)NCCO)cc3F)nc(N3CCOCC3)c2C1` [Example 171, ethyl 2-(2-fluoro-4-(3-(2-hydroxyethyl)ureido)phenyl)-4-morpholino-5H-pyrrolo[3,4-d]pyrimidine-6(7H)-carboxylate], the IC50 was 983 nM in assay [1] and above 10000 nM on PI3 Kbeta (PI3 Kb).
Consider `CC(C)N1Cc2nc(-c3ccc(NC(=O)NC4CC4)cc3F)nc(N3CCOC[C@@H]3C)c2C1` [Example 172, (S)-1-cyclopropyl-3-(3-fluoro-4-(6-isopropyl-4-(3-methylmorpholino)-6,7-dihydro-5H-pyrrolo[3,4-d]pyrimidin-2-yl)phenyl)urea], for which the IC50 in assay [1] is 187 nM; on PI3 Kbeta (PI3 Kb) it was above 10000 nM.
For `COC(=O)N1Cc2nc(-c3ccc(NC(=O)NC4CC4)cc3F)nc(N3CCOCC3)c2C1` [Example 173, Methyl 2-(4-(3-cyclopropylureido)-2-fluorophenyl)-4-morpholino-5H-pyrrolo[3,4-d]pyrimidine-6(7H)-carboxylate], the results for the IC50 (in assay [1]; on PI3 Kbeta (PI3 Kb)) were 172 nM and above 10000 nM, respectively.
For the molecule `CC(C)C(=O)N1Cc2nc(-c3ccc(NC(=O)NC4CC4)cc3F)nc(N3CCOC[C@@H]3C)c2C1` [Example 174, (S)-1-cyclopropyl-3-(3-fluoro-4-(6-isobutyryl-4-(3-methylmorpholino)-6,7-dihydro-5H-pyrrolo[3,4-d]pyrimidin-2-yl)phenyl)urea], the IC50 in assay [1] was 545 nM; on PI3 Kbeta (PI3 Kb), above 10000 nM.
As for `CCNC(=O)Nc1ccc(-c2nc3c(c(N4CCOC[C@@H]4C)n2)CCN(C(=O)N(C)C)C3)c(F)c1` [Example 176, (S)-2-(4-(3-ethylureido)-2-fluorophenyl)-N,N-dimethyl-4-(3-methylmorpholino)-5,6-dihydropyrido[3,4-d]pyrimidine-7(8H)-carboxamide], the IC50 in assay [1] is 76 nM; on PI3 Kbeta (PI3 Kb) it was 1000 to 10000 nM.
For the molecule `C[C@H]1COCCN1c1nc(-c2ccc(NC(=O)NC3CC3)cc2F)nc2c1CN(S(C)(=O)=O)C2` [Example 177, (S)-1-cyclopropyl-3-(3-fluoro-4-(4-(3-methylmorpholino)-6-(methylsulfonyl)-6,7-dihydro-5H-pyrrolo[3,4-d]pyrimidin-2-yl)phenyl)urea], the IC50 in assay [1] was 410 nM; at PI3 Kbeta (PI3 Kb), above 10000 nM.
For the molecule `C[C@H]1COCCN1c1nc(-c2ccc(NC(=O)NC3CC3)cc2F)nc2c1CN(C(=O)N(C)C)C2` [Example 178, (S)-2-(4-(3-cyclopropylureido)-2-fluorophenyl)-N,N-dimethyl-4-(3-methylmorpholino)-5H-pyrrolo[3,4-d]pyrimidine-6(7H)-carboxamide], the IC50 in assay [1] was 163 nM; at PI3 Kbeta (PI3 Kb) it was above 10000 nM.
On to `CCOC(=O)N1Cc2nc(-c3ccc(NC(=O)NC4CC4)cc3F)nc(N3CCOC[C@H]3C)c2C1` [Example 179, (R)-ethyl 2-(4-(3-cyclopropylureido)-2-fluorophenyl)-4-(3-methylmorpholino)-5H-pyrrolo[3,4-d]pyrimidine-6(7H)-carboxylate], for which the IC50 in assay [1] was 63 nM; at PI3 Kbeta (PI3 Kb) it was above 10000 nM.
Consider `COC(=O)N1Cc2nc(-c3ccc(NC(=O)NC4CC4)cc3F)nc(N3CCOC[C@H]3C)c2C1` [Example 180, (R)-methyl 2-(4-(3-cyclopropylureido)-2-fluorophenyl)-4-(3-methylmorpholino)-5H-pyrrolo[3,4-d]pyrimidine-6(7H)-carboxylate], for which the IC50 in assay [1] was 58 nM; at PI3 Kbeta (PI3 Kb) it was above 10000 nM.
`COC(=O)N1Cc2nc(-c3ccc(NC(=O)NCCO)cc3F)nc(N3CCOC[C@@H]3C)c2C1` [Example 181, (S)-methyl 2-(2-fluoro-4-(3-(2-hydroxyethyl)ureido)phenyl)-4-(3-methylmorpholino)-5H-pyrrolo[3,4-d]pyrimidine-6(7H)-carboxylate]: the results for the IC50 (in assay [1]; on PI3 Kbeta (PI3 Kb)) were 962 nM and above 10000 nM, respectively.
